“Also recorded” adds a separate entry of the source.
Legend:
NMDA receptor = assay: NMDA-induced calcium transients (Fura2 calcium imaging); format: cell-based, mouse; details: hippocampal neurons, 6 min NMDA (20 μM) application
Protocol: In a further experiment, the impact of P4 and P15 on NMDA-induced calcium transients was assessed. Briefly, for calcium imaging, primary hippocampal neurons on coverslips were loaded with the cell-permeable, high-affinity ratiometric calcium indicator Fura2-AM (Invitrogen™ F1221), at 1 μM in CO2-independent culture medium (CICM; CICM contains: 10 mM HEPES, 140 mM NaCl, 2.5 mM KCl, 1.0 mM MgCl2, 2.0 mM CaCl2, 1.0 mM Glycine, 35.6 mM Glucose and 0.5 mM Na-pyruvate) for 30 min at 37° C., then washed and left in CICM for another 30 min to allow for de-esterification. Fura2 was excited at 340/11 nm and 380/11 nm, and fluorescence emission was obtained from a 40× UV compatible objective (LUMPLFLN, Olympus) through a 510/20 nm emission filter. For quantification, ImageJ was used to calculate average background-subtracted fluorescence intensities for 340 and 380 nm excitation (F340 and F380) from each neuron. Intracellular calcium levels were plotted as F340/F380 ratios over time, from which the NMDA response amplitude and area under the curve (AUC) was calculated to quantify NMDA-induced calcium influx.

TRPM4 channel = molecular target: T1, TRPM4 channel (Homo sapiens, UniProt Q8TD43); assay: TRPM4 channel function, whole-cell patch clamp in PC3 cells; format: cell-based; details: 10 μM compound, pre-incubated 30-60 min
T1 construct: PC3 cells are known to express TRPM4 channels; endogenous in cells; host or cells: PC3 prostate cancer cell line
Description: To assess any direct impact of compound P4 and compound P15 on TRPM4 channel function independent of NMDA receptors, the inventors used the prostate cancer cell line PC3 and patch clamp recordings. PC3 cells are known to express TRPM4 channels (C. Holzmann et al., Oncotarget. 6, 41783-93 (2015)). TRPM4 currents in turn are characterized by their calcium dependence and outward rectification (P. Launay et al., Cell. 109, 397-407 (2002)). Briefly, whole-cell patch clamp recordings were made from PC3 cells plated on 12 mm round coverslips secured with a platinum ring in a recording chamber (OAC-1, Science Products GmbH) mounted on a fixed-stage upright microscope (BX51WI, Olympus). […] Patch electrodes (3-4 MΩ) were made from 1.5 mm borosilicate glass and filled with cesium-based solutions (in mM: CsCl, 145; NaCl, 8; HEPES, 10; MgCl2, 1; plus either EGTA, 0.2 for a free Ca^2+ concentration of zero; or EGTA, 10 and CaCl2), 9.4 for a calculated free Ca^2+ concentration of 10 μM; Maxchelator, Stanford University). Recordings were made with a Multiclamp 700B amplifier, digitized through a Digidata 1550B and acquired and analyzed using pClamp 10 software (Molecular Devices). Access resistance (range: 10-20 MΩ) was monitored regularly during voltage clamp recordings and data was rejected if changes greater than 20% occurred.

T1 sequence (Q8TD43 whole entry): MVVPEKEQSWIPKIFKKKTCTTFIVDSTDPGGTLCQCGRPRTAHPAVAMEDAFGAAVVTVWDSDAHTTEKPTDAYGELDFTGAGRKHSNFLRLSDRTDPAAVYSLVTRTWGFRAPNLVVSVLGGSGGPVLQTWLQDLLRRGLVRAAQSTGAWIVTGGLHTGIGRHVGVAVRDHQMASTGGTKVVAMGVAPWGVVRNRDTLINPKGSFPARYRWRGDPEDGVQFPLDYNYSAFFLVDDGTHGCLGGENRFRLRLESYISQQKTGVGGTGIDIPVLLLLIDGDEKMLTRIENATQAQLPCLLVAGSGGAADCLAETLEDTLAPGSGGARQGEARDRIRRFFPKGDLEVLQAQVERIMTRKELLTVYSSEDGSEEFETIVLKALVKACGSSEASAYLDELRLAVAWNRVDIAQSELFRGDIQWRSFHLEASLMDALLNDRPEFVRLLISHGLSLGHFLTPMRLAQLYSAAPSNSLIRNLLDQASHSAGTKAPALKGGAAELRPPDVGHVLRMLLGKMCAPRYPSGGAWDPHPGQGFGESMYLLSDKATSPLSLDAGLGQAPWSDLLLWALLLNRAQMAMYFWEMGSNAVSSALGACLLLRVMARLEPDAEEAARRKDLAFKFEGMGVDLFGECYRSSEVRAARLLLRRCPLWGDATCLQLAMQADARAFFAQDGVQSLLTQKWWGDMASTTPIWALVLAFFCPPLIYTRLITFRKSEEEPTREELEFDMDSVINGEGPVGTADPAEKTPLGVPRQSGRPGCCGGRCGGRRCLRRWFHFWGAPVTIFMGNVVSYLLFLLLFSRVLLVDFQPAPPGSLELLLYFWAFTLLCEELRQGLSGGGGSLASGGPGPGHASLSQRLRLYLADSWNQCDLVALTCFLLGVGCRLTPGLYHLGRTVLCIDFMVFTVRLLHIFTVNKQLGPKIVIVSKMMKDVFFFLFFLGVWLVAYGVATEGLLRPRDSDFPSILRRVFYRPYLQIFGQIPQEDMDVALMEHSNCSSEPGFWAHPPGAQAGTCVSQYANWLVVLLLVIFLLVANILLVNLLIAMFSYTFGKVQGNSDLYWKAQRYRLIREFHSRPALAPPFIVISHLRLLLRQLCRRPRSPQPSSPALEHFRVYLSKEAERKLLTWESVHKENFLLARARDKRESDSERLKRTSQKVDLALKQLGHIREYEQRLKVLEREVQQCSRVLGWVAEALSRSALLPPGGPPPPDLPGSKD

For CCN(CCN)Cc1cccc(Br)c1 [P4], the NMDA-induced calcium transients (NMDA receptor) was “neither compound P4 nor compound P15 reduced; also recorded: neither compound P4 nor P15 reduced” and the “TRPM4-like outwardly rectifying current activated by 10 μM Ca2+” value (TRPM4 channel) was “not affected”.
